Patent US20040259079A1, “Substantially complete ribozyme libraries” (priority 1998, published 2004)
Read-outs that look alike come from different tables or passages of the source.

Legend:
Assay type in all cases: cell-based
[1] = system: 5′TK cells (HeLa with HCV IRES-tk reporter); experiment: Gancyclovir sensitivity of 5′TK reporter cells, surviving colonies; design: key to number of surviving cell colonies: TMTC = too many colonies to count
Source text: For gene identification, this reporter is stably transfected into HeLa cells (where HCV IRES activity has already been documented using hygromycin selection (FIG. 23). This “parental” cell population is called 5′TK.
Expression of the tk gene in these cells via the IRES confers sensitivity to the toxic effects of gancyclovir. Introduction of a ribozyme that inhibits expression of a cellular factor involved in IRES translation would result in a loss of tk expression and this cell would become gancyclovir resistant (see FIG. 23). As a control, a similar reporter plasmid was constructed without the IRES (or with a non-functioning mutant IRES), to verify that tk expression is IRES-dependent. To facilitate selection of the correct ribozyme from the library, it was necessary to start with a concentration of gancyclovir that effectively kills all parental cells, thus assuring a low background of false positives. To this end, 7.5×10^5 5′TK cells were exposed to various concentrations of gancyclovir and the number of surviving cell colonies is shown below. Due to anticipated heterogeneity in the original parental population, individual cell clones of the parental were also isolated and gancyclovir sensitivity was assayed as shown below in Table 12.

[2] = system: 2008 cell line (ovarian cell line sensitive to cisplatin); experiment: Cisplatin selection of vector or library transfected cells, surviving colonies
Experimental: Approximately 2×10^7 of the 2008 cell line (ovarian cell line sensitive to cisplatin) and UMscc10b were transfected by 200 μg of pAAV6Clib described in Example 2(A) using lipofectamine. The transfection efficiencies were from 27% to 35% by eGFP expression.
After transfection, about 5.4×10^6 to 7×10^6 of cells (1.5 to 1.9 of library equivalent ) containing library DNA were selected by multiple rounds of addition of cisplatin at increasing concentrations. […] Colonies derived from the library transfected cells growing out of high concentration of cisplatin were expanded.
To confirm the library transfected cells after selection are indeed more resistant to cisplatin than either the vector transfected or parental 2008 cells, we compared the killing curve of the cisplatin of there three cell population. […] Ribozyme sequences were rescued from the library transfected cells which were selected at high concentration were rescued by PCR by the method described in Example D and identified by sequencing. After confirming the function of ribozymes rescued from the resistant cells, we will identify genes controlling cisplatin sensitivity again based on the sequence of the ribozyme binding arms and GUC by the methods described in the next example.

[3] = system: HIV; experiment: HIV challenge of stable Molt4/8 cell lines, P24 production (SAVA); details: for % inhibition of HIV replication: Table 19, U5 ribozyme from RNA polymerase III promoters, P24 at 7 days, vs ALNL-6 control
Experimental: Promoter efficacy was measured by using them to express a ribozyme against the US region of HIV and measuring the resulting anti-HIV effect for each promoter. […] The HIV protease inhibitor, indinavir, was included in these experiments as a positive control at 10 and 100 nM concentrations.

[4] = system: A549 and HeLa cells; experiment: Puromycin selection of transiently transfected cells; details: cells receiving puromycin resistance genes (pPur); 600ng/ml puromycin
Experimental: Drug selection is typically used to obtain cells which stably express the drug resistance gene; however, we have found conditions under which cells transfected with puromycin-expressing vectors can survive for several days in the presence of puromycin, even when not stably transfected or transduced. During the same time period, untransfected cells are rapidly killed by the drug. Plasmids encoding puromycin resistance genes (pPur) were transfected into A549 and HeLa cells, and 600ng/ml puromycin was added to the culture medium. As a control, cells were transfected with plasmids lacking puromycin resistance genes (AMFT). The number of cells was determined at 1-day intervals following transfection. Cells lacking the puromycin resistance gene were killed within 2 or 3 days after the addition of puromycin, whereas cells receiving puromycin resistance genes survived as long as 7-9 days (FIG. 27). Target validation could therefore be performed on these transiently transfected cells between 2-9 days following puromycin selection. Other drugs which rapidly kill cells can also be employed in this type of experiment.

[5] = system: melanoma cell line G-361; experiment: TRAIL killing of G-361 cells; details: 200 ng/ml TRAIL; 2 days after adding; most efficient condition
Experimental: Selection of ribozymes (from the Rz library) capable of blocking TRAIL-induced apoptosis was investigated in the melanoma cell line G-361 (ATCC #CRL-1424). To determine their initial sensitivity to TRAIL, G-361 cells were plated at a density of 1×10^4 cells/cm^2. Recombinant TRAIL (Alexis Biochemicals) was applied at concentrations between 10 and 200 ng/ml for anywhere from 16 hours to 2 days.

Molecule: Nc1nc(O)c2ncn(COC(CO)CO)c2n1 [Gancyclovir, gancyclovir]
- number of surviving cell colonies ([1]; Clone 1, gancyclovir 20 μM): 20
- number of surviving cell colonies ([1]; Clone 1, gancyclovir 40 μM): 4
- number of surviving cell colonies ([1]; Clone 1, gancyclovir 80 μM): 0
- number of surviving cell colonies ([1]; Clone 2, gancyclovir 20 μM): 0
- number of surviving cell colonies ([1]; Clone 2, gancyclovir 40 μM): 0
- number of surviving cell colonies ([1]; Clone 2, gancyclovir 80 μM): 0
- number of surviving cell colonies ([1]; Clone 3, gancyclovir 20 μM): 0
- number of surviving cell colonies ([1]; Clone 3, gancyclovir 40 μM): 0
- number of surviving cell colonies ([1]; Clone 3, gancyclovir 80 μM): 0
- number of surviving cell colonies ([1]; Clone 4, gancyclovir 20 μM): TMTC
- number of surviving cell colonies ([1]; Clone 4, gancyclovir 40 μM): TMTC
- number of surviving cell colonies ([1]; Clone 4, gancyclovir 80 μM): 60
- number of surviving cell colonies ([1]; Clone 5, gancyclovir 20 μM): 0
- number of surviving cell colonies ([1]; Clone 5, gancyclovir 40 μM): 0
- number of surviving cell colonies ([1]; Clone 5, gancyclovir 80 μM): 0
- number of surviving cell colonies ([1]; Parental 5′TK, gancyclovir 4 μM, 7.5×10^5 cells exposed): 109
- number of surviving cell colonies ([1]; Parental 5′TK, gancyclovir 8 μM): 38
- number of surviving cell colonies ([1]; Parental 5′TK, gancyclovir 12 μM): 17
- number of surviving cell colonies ([1]; Parental 5′TK, gancyclovir 16 μM): 15
- number of surviving cell colonies ([1]; Parental 5′TK, gancyclovir 20 μM): 9
- number of surviving cell colonies ([1]; Parental 5′TK, gancyclovir 40 μM): 7
- number of surviving cell colonies ([1]; Parental 5′TK, gancyclovir 60 μM): 2
- number of surviving cell colonies ([1]; Parental 5′TK, gancyclovir 80 μM): 2
- number of surviving cell colonies ([1]; Parental 5′TK, gancyclovir 100 μM): 1
- sensitivity to gancyclovir (in words) ([1]; individual clones #2, 3 and 5, as low as 20 μM): highly sensitive

Molecule: N.N.[Cl][Pt][Cl] [cisplatin]
- % of surviving colonies ([2]; Library transfected cells (pAAV6Clib), cisplatin 4 uM, after multiple rounds of selection): 18.4%
- % of surviving colonies ([2]; Library transfected cells, cisplatin 5 uM): 10.3%
- % of surviving colonies ([2]; Library transfected cells, cisplatin 6 uM): 5.2%
- % of surviving colonies ([2]; Library transfected cells, cisplatin 7 uM): 2.3%
- % of surviving colonies ([2]; Library transfected cells, cisplatin 8 uM): 0%
- % of surviving colonies ([2]; vector transfected cells, cisplatin 4 uM, after multiple rounds of selection): 2.14%
- % of surviving colonies ([2]; vector transfected cells, cisplatin 5 uM): 0.97%
- % of surviving colonies ([2]; vector transfected cells, cisplatin 6 uM): 0.79%
- % of surviving colonies ([2]; vector transfected cells, cisplatin 7 uM): 0%
- % of surviving colonies ([2]; vector transfected cells, cisplatin 8 uM): 0%

Molecule: CC(C)(C)NC(=O)[C@@H]1CN(Cc2cccnc2)CCN1C[C@@H](O)C[C@@H](Cc1ccccc1)C(=O)N[C@H]1c2ccccc2C[C@H]1O [indinavir]
- inhibition at 0.01 µM ([3]; Human immunodeficiency virus 1, MOLT-4, Table 19, positive control at 10 nM, MOI 0.02, read-out: % inhibition of HIV replication): 94.7 ± 2.8%
- inhibition at 0.01 µM ([3]; Human immunodeficiency virus 1, MOLT-4, Table 19, positive control at 10 nM, MOI 0.04, read-out: % inhibition of HIV replication): 85.7 ± 4%
- inhibition at 0.01 µM ([3]; Human immunodeficiency virus 1, MOLT-4, Table 19, positive control at 10 nM, MOI 0.08, read-out: % inhibition of HIV replication): 61.6 ± 9.5%
- inhibition at 0.1 µM ([3]; Human immunodeficiency virus 1, MOLT-4, Table 19, positive control at 100 nM, MOI 0.02, read-out: % inhibition of HIV replication): 97.8 ± 1.7%
- inhibition at 0.1 µM ([3]; Human immunodeficiency virus 1, MOLT-4, Table 19, positive control at 100 nM, MOI 0.04, read-out: % inhibition of HIV replication): 95.9 ± 0.2%
- inhibition at 0.1 µM ([3]; Human immunodeficiency virus 1, MOLT-4, Table 19, positive control at 100 nM, MOI 0.08, read-out: % inhibition of HIV replication): 89.5 ± 1.2%
- inhibition at 0.01 µM ([3]; Human immunodeficiency virus 1, MOLT-4, Table 20, positive control at 10 nM, MOI 0.02, read-out: % inhibition (anti-HIV effect)): 81.3 ± 1.2%
- inhibition at 0.01 µM ([3]; Human immunodeficiency virus 1, MOLT-4, Table 20, positive control at 10 nM, MOI 0.04, read-out: % inhibition (anti-HIV effect)): 70.9 ± 2.1%
- inhibition at 0.01 µM ([3]; Human immunodeficiency virus 1, MOLT-4, Table 20, positive control at 10 nM, MOI 0.08, read-out: % inhibition (anti-HIV effect)): 57.8 ± 4.8%
- inhibition at 0.1 µM ([3]; Human immunodeficiency virus 1, MOLT-4, Table 20, positive control at 100 nM, MOI 0.02, read-out: % inhibition (anti-HIV effect)): 89.1 ± 0.5%
- inhibition at 0.1 µM ([3]; Human immunodeficiency virus 1, MOLT-4, Table 20, positive control at 100 nM, MOI 0.04, read-out: % inhibition (anti-HIV effect)): 86.1 ± 1.9%
- inhibition at 0.1 µM ([3]; Human immunodeficiency virus 1, MOLT-4, Table 20, positive control at 100 nM, MOI 0.08, read-out: % inhibition (anti-HIV effect)): 82 ± 1.2%
- inhibition at 0.01 µM ([3]; Human immunodeficiency virus 1, MOLT-4, Table 22, 10 nM, MOI 0.02, read-out: % inhibition): 74.8 ± 1.5%
- inhibition at 0.01 µM ([3]; Human immunodeficiency virus 1, MOLT-4, Table 22, 10 nM, MOI 0.04, read-out: % inhibition): 73.9 ± 3.6%
- inhibition at 0.01 µM ([3]; Human immunodeficiency virus 1, MOLT-4, Table 22, 10 nM, MOI 0.08, read-out: % inhibition): 68.8 ± 4.5%
- inhibition at 0.1 µM ([3]; Human immunodeficiency virus 1, MOLT-4, Table 22, 100 nM, MOI 0.02, read-out: % inhibition): 98.5 ± 0.5%
- inhibition at 0.1 µM ([3]; Human immunodeficiency virus 1, MOLT-4, Table 22, 100 nM, MOI 0.04, read-out: % inhibition): 95.5 ± 0.6%
- inhibition at 0.1 µM ([3]; Human immunodeficiency virus 1, MOLT-4, Table 22, 100 nM, MOI 0.08, read-out: % inhibition): 93.3 ± 0.4%

Molecule: COc1ccc(C[C@H](N)C(=O)N[C@H]2[C@@H](O)[C@H](n3cnc4c(N(C)C)ncnc43)O[C@@H]2CO)cc1 [puromycin]
- survival time in the presence of puromycin [4]: 7 to 9 days

Molecule: Alanine
- % inhibition of HIV replication ([3]; MOI 0.02): 75.7 ± 21%
- % inhibition of HIV replication ([3]; MOI 0.04): 71.0 ± 23%
- % inhibition of HIV replication ([3]; MOI 0.08): 8.7 ± 24%

Molecule: Serine
- % inhibition of HIV replication ([3]; MOI 0.02): 96.6%
- % inhibition of HIV replication ([3]; MOI 0.04): 91.8%
- % inhibition of HIV replication ([3]; MOI 0.08): 82.0%

B1: TRAIL: Recombinant TRAIL (Alexis Biochemicals), death receptor ligand (protein, UniProt P50591 1-281, looked up)
Tumor necrosis factor ligand …: MAMMEVQGGPSLGQTCVLIVIFTVLLQSLCVAVTYVYFTNELKQMQDKYSKSGIACFLKEDDSYWDPNDEESMNSPCWQVKWQLRQLVRKMILRTSEETISTVQEKQQNISPLVRERGPQRVAAHITGTRGRSNTLSSPNSKNEKALGRKINSWESSRSGHSFLSNLHLRNGELVIHEKGFYYIYSQTYFRFQEEIKENTKNDKQMVQYIYKYTSYPDPILLMKSARNSCWSKDAEYGLYSIYQGGIFELKENDRIFVSVTNEHLIDMDHEASFFGAFLVG
- killing of G-361 cells [5]: < 100%
